The nature of data set [1]: method code SF-AS, from DOI: 10.1016/0378-5173(86)90115-8.
Test in data set [2]: not given
This is another data set of the same source.

Data set [3] in a line: method code SF-HPLC, from DOI: 10.1023/a:1018903407592, PMID: 8165182. The following applies: pH 7.4.
Data set [4] is described as follows: method code SF-HPLC, from Yu, G.; Xu, X. (1993). Determination of the 1-octanol/water partition coefficient of nitro-PAHs. Huanjing Huaxue, 12(4)299-303.
Test in data set [5]: not given
The source holds these as a separate data set.

Test in data set [6]: not given
The source holds these as a separate data set.

Data set [7] can be described thus: method code SF-AS, from DOI: 10.1016/0223-5234(94)90063-9. The following applies: pH 2.0.
Data set [8] in a line: method code SF-RC, from DOI: 10.1002/ps.2780410303.
Test in data set [9]: not given
This is another data set of the same source.

Data set [10] is described as follows: method code SF-HPLC, from DOI: 10.1016/0378-5173(88)90064-6. The following applies: pH 7.4.
Data set [11] in a line: method code SF, from DOI: 10.1016/0378-5173(90)90261-2. The following applies: pH 3.0.
The nature of data set [12]: method code SF-AS, from DOI: 10.1021/jm00395a009, PMID: 3681892. The following applies: pH 7.4.
Data set [13] in a line: method code SF-AS, from DOI: 10.1016/s0969-8051(99)00063-3, PMID: 10628565. The following applies: pH 7.0.
Data set [14] is described as follows: method code SF, from DOI: 10.1248/cpb.39.1346, PMID: 1914012.
Test in data set [15]: not given
The source holds these as a separate data set.

The nature of data set [16]: method code SF-AS, from Falk, M.; Luecke, L. (1989). Transport of substances through lipid membranes. 11. Effect of esterification on the dissociation and permeation of orotic acid. Pharmazie, 44(9)647. The following applies: pH 1.2.
Test in data set [17]: not given
The source holds these as a separate data set.

Test in data set [18]: not given
The source holds these as a separate data set.

Test in data set [19]: not given
This is another data set of the same source.

Data set [20] is described as follows: method code SF, from DOI: 10.1021/jm200015a, PMID: 21630666. The following applies: pH 7.4.
Test in data set [21]: not given
This is another data set of the same source.

Test in data set [22]: not given
This is another data set of the same source.

A short description of data set [23]: method code SF-HPLC, from DOI: 10.1039/a702469j. The following applies: pH 7.0.

SMILES strings stand for the structures.

For the compound `CC(=O)Nc1ccc(OCC(O)CNCC(O)COc2ccccc2)cc1` (configuration not stated), the logP came out at 1.39. As to `CN(C(=O)CCO)c1ccc(S(=O)(=O)N(C)C)cc1`, the logP in data set [1] was -0.26. On to `Fc1ccc(-c2ccc(-c3ccc(F)cc3)o2)cc1`, for which, in [2], the lipophilicity (logP) amounted to 5.11. `CCCCCC(=O)OCCOCn1cnc2c(=O)[nH]c(N)nc21` showed a logD in data set [3] of 0.93.

In the case of `O=[N+]([O-])c1c2ccccc2cc2ccccc12`, the logP in data set [4] came to 4.21. On to `COc1cccc(Nc2ccccc2C(=O)O)c1`, for which the lipophilicity (logP) in [5] stood at 4.31.

For `O=[N+]([O-])c1ccc2ccc3cccc4ccc1c2c34`, the logP in data set [4] worked out at 5.06. In data set [6], `CC(=O)NCC(=O)Nc1nnc(-c2cccc(Cl)c2Cl)c(N)n1` came in with a lipophilicity (logP) of 1.1.

The compound `CCCCC(=O)N(C)c1ccc(S(=O)(=O)N(C)C)cc1` registered a log partition coefficient (logP) in [1] of 1.63.

In data set [7], `COc1ccc(C(=O)c2ncc(CC(=O)O)n2C)cc1` yielded a logD of 0.11. With `COCc1cnc(C2=NC(C)(C(C)C)C(=O)N2)c(C(=O)O)c1` (configuration not stated), in data set [8] (pH 2.5), the logD amounted to 0.47. `Cn1c(CC(=O)O)cnc1C(=O)c1ccc([N+](=O)[O-])cc1` yielded a logD in data set [7] of 0.86. For `Clc1cc2c(oc3cc(Cl)c(Cl)c(Cl)c32)c(Cl)c1Cl`, the lipophilicity (logP) in data set [9] was determined as 6.6. Compound `CC(=O)c1ccc2cc(C(C)C(=O)OCC(=O)N(C)C)ccc2c1` (configuration not stated) registered a logD in data set [10] of 2.05.

As for `O=C(O)CCCCCc1ccccc1`, in [11], the logD was 3.27. In the case of `CC(=O)OCC1OC(n2ccc(=O)n(Cc3ccccc3)c2=O)C(OC(C)=O)C1OC(C)=O` (configuration not stated), the logD in [12] worked out at 1.51.

Take `O=c1[nH]c(Nc2ccccc2)nc2c1ncn2C1CC(O)C(CO)O1` (configuration not stated): the logD in [13] came out at 0.4.

In turn, `Cn1c(CC(=O)O)cnc1C(=O)c1ccc(Cl)cc1` registered a logD in data set [7] of 1.17. As for `CC1(C)[C@@H](O[C@H]2O[C@H](C(=O)O)[C@@H](O)[C@H](O)[C@H]2O[C@@H]2O[C@H](C(=O)O)[C@@H](O)[C@H](O)[C@H]2O)CC[C@@]2(C)[C@@H]3C(=O)C=C4[C@H]5C[C@@](C)(C(=O)O)CC[C@@]5(C)CC[C@@]4(C)C3(C)CC[C@@H]12` (some centres not stated), the lipophilicity (logP) in data set [14] was 2.8.

`CCCCC(=O)OCCOCn1cnc2c(=O)[nH]c(N)nc21` gave a logD in data set [3] of 0.37.

In data set [15], `Cc1cc(Cl)c(Cc2cc(Cl)ccc2Cl)cc1Cl` registered a logP of 6.51. Compound `CCCCc1cnc(C2=NC(C)(C(C)C)C(=O)N2)c(C(=O)O)c1` (configuration not stated) showed a logD in [8] (pH 2.8) of 1.99.

With `CCCCCCCCCOC(=O)c1cc(=O)[nH]c(=O)[nH]1`, the logD in data set [16] was 2.41. `OC(CNCC(O)COc1ccccc1)COc1ccccc1` (configuration not stated) yielded a logP of 2.52. In [17], `O=C(CCCN1CCC(O)(c2ccc(I)cc2)CC1)c1ccc(F)cc1` registered a logP of 2.6. In turn, `Clc1cc2oc3cc(Cl)c(Cl)c(Cl)c3c2c(Cl)c1Cl` registered a logP in data set [18] of 7.57. In the case of `CCCN(CCCl)c1c([N+](=O)[O-])cc(C(F)(F)F)cc1[N+](=O)[O-]`, in data set [19], the lipophilicity (logP) is 4.63. In data set [18], `Clc1cc(Cl)c2oc3c(Cl)cc(Cl)c(Cl)c3c2c1Cl` showed a logP of 7.65.

Compound `CC(=O)c1cccc(Nc2ccccc2C(=O)O)c1` yielded a logP in data set [5] of 4.07. Compound `Cc1cc(-c2ccc(OC(F)(F)F)cc2)ccc1-c1ccc2[nH]c3c(c(=O)c2c1)CSCC3` displayed a logD in data set [20] of 3.6. As to `Cc1ccccc1NS(=O)(=O)c1c(O)c(Cl)cc(Cl)c1Cl`, the logP in data set [21] came out at 4.02. Take `CC1=C(C)C(O)N(c2ccc(C(F)(F)F)c(Cl)c2)C1=O` (configuration not stated): the lipophilicity (logP) in data set [22] came to 3.53.

As for `Clc1cc2c(c(Cl)c1Cl)Oc1cc(Cl)c(Cl)c(Cl)c1O2`, the logP in data set [9] is 7.8. `Cc1cc(I)cc(CN(C)CCCN(C)C)c1O` returned a logP in data set [17] of 2.2. `O=C(O)c1ccccc1Nc1cccc(O)c1` gave a logP in data set [5] of 3.43. In turn, `COCCn1cnc2c(=O)[nH]c(Nc3ccccc3)nc21` displayed a logD in data set [13] of 1.2. `O=c1c2c([nH]c3cc(-c4ccc(-c5ccc(OC(F)(F)F)cc5)cc4)ccc13)CCCC2` gave a logD in [20] of 3.8. Same read-out and setting: the result for `O=c1c2c([nH]c3ccc(Br)cc13)CCSC2` reads 0.9. In turn, `CC1(C(=O)O)CCC2(C)CCC3(C)C(=CC(=O)C4C5(C)CCC(O)C(C)(C)C5CCC43C)C2C1` (configuration not stated) yielded a logP in data set [14] of 4.77.

On to `O=c1[nH]c(Nc2ccccc2)nc2c1ncn2CCO`, for which the logD in data set [13] was determined as 0.83. In data set [22], `CC1=C(C)C(O)N(c2cccc(N)c2)C1=O` (configuration not stated) gave a lipophilicity (logP) of 0.51. With `CCCC(=O)OCCOCn1cnc2c(=O)[nH]c(N)nc21`, the logD in data set [3] was -0.08. In data set [2], `COc1ccc(C(c2ccc(OC)cc2)C(Cl)Cl)cc1` had a lipophilicity (logP) of 3.78. Compound `CC(C)(C)NC[C@H](O)COc1nsnc1N1CCOCC1` displayed a log partition coefficient (logP) of 1.98. In data set [16], `CCCCCCCOC(=O)c1cc(=O)[nH]c(=O)[nH]1` gave a logD of 2.15.

`Clc1cc2oc3c(Cl)c(Cl)c(Cl)c(Cl)c3c2cc1Cl` had a lipophilicity (logP) in data set [9] of 6.6. The compound `CN(C(=O)CCC#N)c1ccc(S(=O)(=O)N(C)C)cc1` had a logP in [1] of -0.17.

As to `Cc1cc(Cc2ccc(Cl)c(Cl)c2)c(Cl)cc1Cl`, the log partition coefficient (logP) in [15] came out at 6.51. Regarding `O=S(=O)(Nc1ccc(Cl)cc1)c1cc(Cl)cc(Cl)c1O`, the logP in data set [21] is 3.66.

The compound `CCOP(=O)(OCC)C(C)(C)[N+]([O-])=Cc1ccc([N+](=O)[O-])cc1` had a logD in [23] of 1.43.

For `O=C(O)c1cc(Oc2ccc(C(F)(F)F)cc2Cl)ccc1[N+](=O)[O-]`, the logP in [19] worked out at 4.26. With `CCOP(=O)(OCC)C(C)(C)[N+]([O-])=Cc1ccc(Cl)cc1`, in data set [23], the logD turned out to be 2.44.

For the compound `O=[N+]([O-])c1cccc(O[C@@H]2O[C@H](CO)[C@@H](O)[C@H](O)[C@H]2O)c1`, in data set [14], the lipophilicity (logP) is -0.46. Take `Clc1cc(Cl)c2oc3c(Cl)c(Cl)c(Cl)c(Cl)c3c2c1`: the log partition coefficient (logP) in data set [18] was 7.58. Turning to `CC1=C(C)C(O)N(c2ccc(C(F)(F)F)cc2)C1=O` (configuration not stated), the logP in [22] amounted to 3.13.

`COC(=O)C(C)Oc1ccc(Oc2ncc(C(F)(F)F)cc2Cl)cc1` (configuration not stated) gave a logP in data set [19] of 4.07. `O=C(O)CCCCCCCc1ccccc1` had a logD in [11] of 4.09. In turn, `CC(C)NC(C)Cc1ccc(I)cc1` (configuration not stated) gave a logP in data set [17] of 1.6. Compound `O=C1CCCCCCCCCCC1` yielded a logP in data set [2] of 4.1. In data set [6], `CSCCC(NC(C)=O)C(=O)Nc1nnc(-c2cccc(Cl)c2Cl)c(N)n1` (configuration not stated) had a log partition coefficient (logP) of 1.92. In data set [23], `CCOP(=O)(OCC)C(C)(C)[N+]([O-])=Cc1ccccn1` registered a logD of 0.68. `CC(=O)c1ccc2cc(C(C)C(=O)OCC(=O)N(C)CCO)ccc2c1` (configuration not stated): in [10], the logD was 2.01. Consider `O=S(=O)(Nc1ccccc1)c1c(O)c(Cl)cc(Cl)c1Cl`, for which, in data set [21], the logP is 3.74. On to `CC(=O)NC(CCC(=O)O)C(=O)Nc1nnc(-c2cccc(Cl)c2Cl)c(N)n1` (configuration not stated), for which the lipophilicity (logP) in data set [6] came out at 1.6.

The compound `CCCCCCCCOC(=O)c1cc(=O)[nH]c(=O)[nH]1` registered a logD in data set [16] of 2.6. For `CN(CCO)C(=O)COC(=O)c1ccccc1O`, in data set [10], the logD amounted to 0.86. In the case of `Cc1cc(Cl)c(Cl)cc1Cc1ccc(Cl)cc1Cl`, in data set [15], the logP was determined as 6.43. In turn, `O=c1ccn(C2OC(CO)C(O)C2O)c(=O)n1Cc1ccccc1` (configuration not stated) yielded a logD in data set [12] of 0.33. `O=C(O)CCCCCCc1ccccc1` registered a logD in data set [11] of 3.63. On to `CC(C)C1(C)N=C(c2ncc(Br)cc2C(=O)O)NC1=O` (configuration not stated), for which, in data set [8] (pH 1.8), the logD amounted to 1.19. Compound `O=[N+]([O-])c1cccc(-c2ccccc2)c1` showed a lipophilicity (logP) in [4] of 3.69. The compound `COC1OC(n2ccc(=O)[nH]c2=O)C(OC)C1OC` (configuration not stated) yielded a logD in data set [12] of -0.3.

By logP is commonly meant a log measure of how a compound divides between an organic and an aqueous phase.

These data come from the SangsterLogP compilation.
